Measured values taken from article PMC4819940 (Cancer Chemotherapy and Pharmacology, 2016).

Columns and labels:
[1] = system: Western patients with advanced solid malignancies; design: method as in earlier work; conditions: 4/3 dosing schedule; cited from earlier work
[2] = system: advanced solid tumors in Japanese patients; assay: Objective tumor response (RECIST version 1.1); assay type: in vivo, human; conditions: for Best objective response: Non-response, Not evaluable / Best objective response: Non-response, RECIST progression / Best objective response: Non-response, Stable disease ≥6 weeks / Best objective response: Complete response / Best objective response: Partial response: patients, count (%); for Best objective response: Complete response / Best objective response: Partial response: response confirmed after 4 weeks; for time to partial response after starting AZD5363: Akt1 (E17K) positive; for duration of partial response at data cutoff: data cutoff July 7, 2014
Description: Objective tumor response assessments were based on Response Evaluation Criteria in Solid Tumors (RECIST) version 1.1.
Tumor samples were screened for mutations using a clinical sequencing platform consisting of an in-house cancer gene panel (National Cancer Center OncoPanel version 2) based on an Agilent Sure Select system and an Illumina MiSeq sequencer. The target regions to be captured were the exons of 90 targetable or actionable genes and the introns of 10 protein kinase genes. Samples with <10 % tumor cell content were excluded from the analysis.

[3] = breast cancer patient, 640 mg bid intermittent 2/5
[4] = ovarian cancer patient, 480 mg bid intermittent 4/3

For `NC1(C(=O)N[C@@H](CCO)c2ccc(Cl)cc2)CCN(c2ncnc3[nH]ccc23)CC1` [AZD5363], the “recommended dose for AZD5363 monotherapy” value [1] is listed as 480 mg bid, the “Best objective response: Non-response, Not evaluable” value ([2]; 80 mg bid continuous) is listed as 0 (0.0) and the “Best objective response: Non-response, RECIST progression” value ([2]; 80 mg bid continuous) is listed as 1 (33.3). For the same compound, the “Best objective response: Non-response, Stable disease ≥6 weeks” value ([2]; 80 mg bid continuous) was 2 (66.7), the “Best objective response: Complete response” value ([2]; 80 mg bid continuous) was 0 (0.0) and the “Best objective response: Partial response” value ([2]; 80 mg bid continuous) was 0 (0.0). For the same compound, the “Best objective response: Non-response, Not evaluable” value ([2]; 240 mg bid continuous) was 1 (14.3), the “Best objective response: Non-response, RECIST progression” value ([2]; 240 mg bid continuous) was 5 (71.4) and the “Best objective response: Non-response, Stable disease ≥6 weeks” value ([2]; 240 mg bid continuous) was 1 (14.3). The “Best objective response: Complete response” value ([2]; 240 mg bid continuous) was 0 (0.0), the “Best objective response: Partial response” value ([2]; 240 mg bid continuous) was 0 (0.0) and the “Best objective response: Non-response, Not evaluable” value ([2]; 320 mg bid continuous) was 2 (66.7). For the same compound, the “Best objective response: Non-response, RECIST progression” value ([2]; 320 mg bid continuous) was 1 (33.3), the “Best objective response: Non-response, Stable disease ≥6 weeks” value ([2]; 320 mg bid continuous) was 0 (0.0) and the “Best objective response: Complete response” value ([2]; 320 mg bid continuous) was 0 (0.0). The “Best objective response: Partial response” value ([2]; 320 mg bid continuous) was 0 (0.0), the “Best objective response: Non-response, Not evaluable” value ([2]; 360 mg bid intermittent 4/3) was 2 (25.0) and the “Best objective response: Non-response, RECIST progression” value ([2]; 360 mg bid intermittent 4/3) was 3 (37.5). For the same compound, the “Best objective response: Non-response, Stable disease ≥6 weeks” value ([2]; 360 mg bid intermittent 4/3) was 3 (37.5), the “Best objective response: Complete response” value ([2]; 360 mg bid intermittent 4/3) was 0 (0.0) and the “Best objective response: Partial response” value ([2]; 360 mg bid intermittent 4/3) was 0 (0.0). The “Best objective response: Non-response, Not evaluable” value ([2]; 400 mg bid continuous) was 1 (25.0), the “Best objective response: Non-response, RECIST progression” value ([2]; 400 mg bid continuous) was 3 (75.0) and the “Best objective response: Non-response, Stable disease ≥6 weeks” value ([2]; 400 mg bid continuous) was 0 (0.0). The “Best objective response: Complete response” value ([2]; 400 mg bid continuous) was 0 (0.0), the “Best objective response: Partial response” value ([2]; 400 mg bid continuous) was 0 (0.0) and the “Best objective response: Non-response, Not evaluable” value ([2]; 480 mg bid intermittent 4/3) was 0 (0.0). For the same compound, the “Best objective response: Non-response, RECIST progression” value ([2]; 480 mg bid intermittent 4/3) was 1 (16.7), the “Best objective response: Non-response, Stable disease ≥6 weeks” value ([2]; 480 mg bid intermittent 4/3) was 4 (66.7) and the “Best objective response: Complete response” value ([2]; 480 mg bid intermittent 4/3) was 0 (0.0). For the same compound, the “Best objective response: Partial response” value ([2]; 480 mg bid intermittent 4/3) was 1 (16.7), the “Best objective response: Non-response, Not evaluable” value ([2]; 640 mg bid intermittent 2/5) was 1 (16.7) and the “Best objective response: Non-response, RECIST progression” value ([2]; 640 mg bid intermittent 2/5) was 4 (66.7). The “Best objective response: Non-response, Stable disease ≥6 weeks” value ([2]; 640 mg bid intermittent 2/5) was 0 (0.0), the “Best objective response: Complete response” value ([2]; 640 mg bid intermittent 2/5) was 0 (0.0) and the “Best objective response: Partial response” value ([2]; 640 mg bid intermittent 2/5) was 1 (16.7). For the same compound, the “Best objective response: Non-response, Not evaluable” value ([2]; Total) was 7 (18.9), the “Best objective response: Non-response, RECIST progression” value ([2]; Total) was 18 (48.6) and the “Best objective response: Non-response, Stable disease ≥6 weeks” value ([2]; Total) was 10 (27.0). The “Best objective response: Complete response” value ([2]; Total) was 0 (0.0), the “Best objective response: Partial response” value ([2]; Total) was 2 (5.4) and the “patients with confirmed partial response” value ([2]; all cohorts, both Akt1 (E17K) mutation positive) was “two”. The “best response, decrease in the SLD of target lesions” value [2, 3] was 60.8%, the “day on which progression was confirmed” value [2, 3] was 378 days and the “time to partial response after starting AZD5363” value [2, 3] was 44 days. For the same compound, the “patients with stable disease for 12 weeks or more” value ([2]; of the 10 patients with stable disease) was “Seven”, the “time partial response was maintained” value ([2]; one patient in the 480 mg bid 4/3 dosing cohort) was over 2 years and the “best response, decrease in the sum of the longest diameter (SLD) of target lesions” value [2, 4] was 55.8%. For the same compound, the duration of response ([2]; ovarian cancer patient, 480 mg bid intermittent 4/3, as of September 2015, according to the investigator) was 1177 days, the “time to partial response after starting AZD5363” value [2, 4] was 79 days and the “duration of partial response at data cutoff” value ([2]; patient in the 480 mg bid intermittent 4/3 cohort) was 675 days. The “duration of partial response at data cutoff” value ([2]; patient in the 640 mg bid intermittent 2/5 cohort) was 127 days, the “patients with stable disease” value ([2]; three on continuous dosing and seven on intermittent dosing) was “Ten” and the “patients with a complete response” value ([2]; tumor response analysis set) was “no patients”. For the same compound, the “patients with disease progression” value ([2]; tumor response analysis set, 37 patients) was 48.6% and the “response of PIK3CA mutation positive patients to AZD5363 treatment” value ([2]; two additional patients identified as PIK3CA mutation positive) was “did not respond”.
